The values below come from patent publication US20220213210A1, “COMBINATION THERAPY OF MULTIPLE SCLEROSIS COMPRISING A CD20 LIGAND” (MABION SA, priority 2017, published 2022).

SMILES strings stand for the structures. Counter-ions that a name gives are not always drawn.

The assay concerns MOG-induced experimental allergic encephalomyelitis (EAE) murine model. Kind of assay: MOG-induced experimental allergic encephalomyelitis (EAE) murine model, clinical score 0-15. It counts as in vivo, Mouse/C57BL/6J. The settings on record: dimethyl fumarate in therapeutic dose, 49 mg/kg PO bi-daily, Days 0-35 (Group 11). From the text: FIG. 1: Combination of MabionCD20DP and teriflunomide. MabionCD20DP and teriflunomide have been administered to an experimental allergic encephalomyelitis (EAE) mouse model. The MOG (myelin oligodendrocyte glycoprotein)-induced EAE murine model consists of a sensitization period, induced by the single SC injection of MOG emulsified in CFA (complete Freund's adjuvant) on Day 0, followed by IP supplemental immunostimulation with PT carried out once at the time of EAE induction and once again 48 hours later.
FIG. 2: Combination of MabionCD20DP and dimethyl fumarate. MabionCD20DP and dimethyl fumarate have been administered to an experimental allergic encephalomyelitis (EAE) mouse model. […]
Throughout the 36-day study, general clinical examinations were performed and recorded if any unexpected abnormalities are observed.
Body weight loss can be the first sign of disease initiation, while a sudden marked weight gain tends to accompany remission of EAE symptoms. Therefore, determination of individual body weights of animals was made shortly before EAE induction on Study Day 0 and was monitored on a daily basis throughout the 35-day observation period. […]

`COC(=O)/C=C/C(=O)OC` [dimethyl fumarate]: the “disease parameters (EAE), FIG. 2” value is “reduction of the disease parameters”.
